Where a name gives a salt, the structure may show the parent alone.

The values below come from US9399028B2, “Treatment of drug resistant cancer” (ROCKEFELLER UNIVERSITY (THE), priority 2012, dated 2016).

In assay [1] the test system is extracellular ApoE protein. In words: ApoE ELISA of conditioned media. The class given is cell-based, human. Conditions: MeWo cells, 1 μM, 72 hours. The procedure:
Extracellular ApoE levels in serum-free conditioned media from melanoma cells treated with DMSO, GW3965, or T0901317 (1 μM each) were quantified using the ApoE ELISA kit (Innovative Research) at 72 hours following treatment.

For assay [2], the system named is human melanoma cells (MeWo, MeWo-LM2, A375-LM3, HT-144, SK-Mel-334.2). The assay can be described thus: Tail-vein lung metastatic colonization assay, bioluminescence imaging. The class given is in vivo. The procedure: After 8 hours, the transfection media was replaced with fresh media. After 48 hours, 1×10^5 cells were injected intravenously into NOD-SCID mice to assess lung metastatic colonization or through intracardiac injection into athymic nude mice to assess systemic metastasis. For cell invasion and endothelial recruitment in vitro assays, the cells were used 96 hours post-transfection.
Melanoma cells used for in vivo metastasis assays were transduced with a stably expressed retroviral construct encoding a luciferase reporter gene (Ponomarev et al., 2004), allowing us to monitor the in vivo progression of melanoma cells by bioluminescence imaging. The following numbers of melanoma cells, resuspended in 100 μL, of PBS, were injected intravenously via the tail-vein: 4×10^4 MeWo cells, 2.5×10^5 HT-144 cells, 2×10^5 SK-Mel-334.2 cells, 5×10^4B16F10 cells, and 1×10^5 YUMM cells. The MeWo, HT-144, and SK-Mel-334.2 cells were injected into 6-8 week-old sex-matched NOD scid mice, while the B16F10 and YUMM cells were injected into 6-8 week-old sex-matched C57BL/6 mice. In all experiments assessing at the effects of GW3965 on metastasis formation, mice were pre-treated on a control diet or a GW3965-supplemented diet (20 mg/kg) for 10 days. To assess the effect of GW3965 treatment on brain metastasis, 1×10^5 MeWo brain-metastatic derivatives were injected intracardially into athymic nude mice. Immediately following injection, mice were randomly assigned to a control diet or GW3965-supplemented diet (100 mg/kg). To determine whether oral delivery of GW3965 can inhibit the progression of incipient metastasis, NOD Scid mice were intravenously injected with 4×10^4 MeWo cells and the cells were allowed to colonize the lungs for 42 days, after which mice were blindedly assigned to a control diet or a GW3965-supplemented diet (100 mg/kg) treatment.

In another assay the test system is ApoE. In words: ApoE expression in vivo (western blot, qRT-PCR) in mouse tissues, white blood cells and tumors. To be noted: for ApoE protein expression in systemic adipose, lung, and brain tissues: chow 20 mg/kg for 10 days, western blot; for ApoE transcript levels in circulating white blood cells: diet 20 mg/kg for 10 days. On the procedure: FIG. 29A-K. Therapeutic Delivery of LXR Agonists Upregulates Melanoma-Derived and Systemic ApoE Expression. (FIG. 29A-FIG. 29B) ApoE expression levels, quantified by qRT-PCR, in subcutaneous tumors formed by B16F10 mouse melanoma cells injected into C57BL/6 mice. After 5-mm3 tumor formation, mice were fed a control diet or diet containing GW3965 (20 mg/kg) (FIG. 29A) or T0901317 (20 mg/kg) (FIG. 29B) for 7 days. n=3-4. (FIG. 29C-FIG. 29E) ApoE transcript expression in primary tumors (FIG. 29C), lung metastases (FIG. 29D), and brain metastases (FIG. 29E) formed by MeWo human melanoma cells grafted onto NOD Scid mice that were administered control chow or chow supplemented with GW3965 (20 mg/kg). ApoE levels were assessed on day 35 (FIG. 29C), day 153 (FIG. 29D), and day 34 (FIG. 29E) post-injection of the cancer cells. n=3-5. (FIG. 29F) Relative expression levels of LXRα, LXRβ, and ApoE were determined by qRT-PCR in B16F10 mouse melanoma cells expressing a control hairpin or an shRNA targeting mouse LXRα (sh_mLXRα), mouse LXRβ (sh_mLXRβ), or mouse ApoE (sh_mApoE). (FIG. 29G-FIG. 29H) ApoE (FIG. 29G) and ABCA1 (FIG. 29H) mRNA levels, measured by qRT-PCR, in B16F10 cells expressing a control shRNA or shRNAs targeting mouse LXRβ or mouse ApoE. The cells were treated with DMSO or GW3965 at 5 μM for 48 hours. n=3. (FIG. 29I) ABCA1 mRNA levels, measured by qRT-PCR, in systemic white blood cells extracted from LXRα−/− or LXRβ−/− mice fed a control diet or a GW3965-supplemented diet (20 mg/kg) for 10 days. n=3-4. (FIG. 29J) Relative expression of ApoE mRNA, expressed as the frequency of SAGE tags, in mouse skin and lung tissues was determined using the public mSAGE Expression Matrix database available through the NCI-funded Cancer Genome Anatomy Project (CGAP). (FIG. 29K) Relative expression of ApoE mRNA, determined by qRT-PCR, in MeWo melanoma cells dissociated from lung metastatic nodules (LM2) or primary tumors relative to control unselected MeWo parental cells. n=3.
FIG. 30A-I. LXRβ Agonism Suppresses Melanoma Tumor Growth and Metastasis by Inducing Melanoma-Derived and Systemic ApoE Expression. […] (FIG. 30B) Quantification of ApoE protein expression based on western blots shown in (FIG. 30A). […] (FIG. 30C) Expression levels of ApoE, determined by qRT-PCR, in systemic white blood cells from mice fed a control diet or a diet supplemented with GW3965 or T0901317 at 20 mg/kg for 10 days. n=3-6. […] Once the tumors reached 5-10 mm3 in volume, mice were fed a control diet or a diet supplemented with GW3965 (20 mg/kg) for 7 days, after which final tumor volume was measured. […] (FIG. 30E) ApoE transcript levels, quantified by qRT-PCR, in systemic white blood cells extracted from LXRα−/− or LXRβ−/− mice fed a control diet or a GW3965-supplemented diet (20 mg/kg) for 10 days. n=3-5. […]

For `O=C(O)Cc1cccc(OCCCN(Cc2cccc(C(F)(F)F)c2Cl)CC(c2ccccc2)c2ccccc2)c1` [GW3965 2, 3-[3-[N-(2-Chloro-3-trifluoromethylbenzyl)-(2,2-diphenylethyl)amino]propyloxy]phenylacetic acid hydrochloride], in assay [1], the “levels of secreted ApoE protein” value was “elevated levels”. In assay [2] (MeWo cells pre-treated at 1 μM for 48 hours before injection), the “reduction in metastatic colonization capacity” value is “more than 50 fold”. In assay [2] (MeWo cells, oral in chow 20 mg/kg from 10 days before injection), the “reduction in lung metastatic colonization” value was found to be 31 fold. Moreover, in assay [2] (MeWo, chow 20 mg/kg), the “survival times following metastatic colonization” value is on record as “significantly prolonged”. In addition, in assay [2] (MeWo, diet 100 mg/kg from d42), the “suppression of colonization by incipient lung metastases” value is on record as 28 fold. Besides, in assay [2] (MeWo, diet 100 mg/kg from d42, lungs at d77), the “number of macroscopic metastatic nodules formed” value is listed as “decreased”. The “metastatic colonization by HT-144 and SK-Mel-334.2” value in assay [2] (oral in diet) is “suppressed”. Further, in assay [2] (parental MeWo cells, chow diet 20 mg/kg), the “in vivo melanoma metastasis (lung, bioluminescence)” value is reported as “significant reduction”. For the same compound, in the assay with ApoE, the “ApoE protein expression in systemic adipose, lung, and brain tissues” value was “significantly elevated”; the “ApoE transcript levels in circulating white blood cells” value is recorded as “upregulated”.
For the compound `O=S(=O)(c1ccccc1)N(CC(F)(F)F)c1ccc(C(O)(C(F)(F)F)C(F)(F)F)cc1` [T0901317 1], the “levels of secreted ApoE protein” value in assay [1] is given as “elevated levels”. Moreover, in the assay with ApoE, the “ApoE protein expression in systemic adipose, lung, and brain tissues” value is listed as “significantly elevated”; the “ApoE transcript levels in circulating white blood cells” value is “upregulated”.
Consider “recombinant human ApoE3: recombinant human ApoE3 (4696, BioVision)”, for which the “suppression of metastatic colonization” value in assay [2] (MeWo-LM2 cells pre-incubated 24 hours at 100 μg/mL before injection, NOD-SCID mice) is given as “over 300 fold”.
